Data reported in patent US11938136B2, “Compositions for treating spinal muscular atrophy” (Hoffmann-La Roche Inc., priority 2015, dated 2024).

Columns and labels:
SMN2 splicing = assay: Ex vivo whole blood assay, SMN2 splicing; format: cell-based, human; conditions: whole blood cells from healthy volunteers, 4 hours
Procedure: (A) SMN2 splicing in SMA Type 1 fibroblasts. (B) SMN protein in SMA Type 1 fibroblasts. (C) SMN protein in SMA Type 1 motor neurons. (D) SMN1 and SMN2 splicing in whole blood derived from HV. Fibroblasts from SMA Type 1 patients were cultured for 24 hours (A) or 48 hours (B); motor neurons from SMA Type 1 patient iPSCs (induced Pluripotent Stem Cells) were cultured for 72 hours (C) and whole blood cells from healthy volunteers (HV) for 4 hours (D) in the presence of the compound of Example 20. SMN splicing was assessed by RT-PCR, and SMN protein levels were assessed by homogenous time-resolved fluorescence (HTRF) in fibroblast lysates, and by immunostaining for SMN in motor neurons. Data represent means standard error (SEM) of 3 evaluations per data point and are expressed as fold change vs. untreated controls. To further assess SMN2 splicing as a potential blood biomarker, an ex vivo assay was developed using whole blood cells from healthy volunteers in which SMN1 and SMN2 splicing was assessed after 4 hours treatment with the compound of Example 20 (at this time point, maximal splicing changes were achieved).

SMN protein = SMN protein in brain and quadriceps muscle of C/C-allele mice (HTRF); format: in vivo, mouse
Procedure: (A) SMN protein in brains of C/C-allele mice. (B) SMN protein in brains of SMNΔ7 mice. (C) SMN protein in quadriceps muscle of C/C-allele mice. (D) SMN protein in quadriceps muscle of SMNΔ7 mice. C/C-allele mice and SMNΔ7 mice were treated with the compound of Example 20. One hour after the last dose, brains and quadriceps muscles were collected and levels of SMN protein were assessed by HTRF. Data represent means SEM of 5-6 animals per group and are expressed as fold change vs. vehicle-treated controls. *=p<0.05, **=p<0.01, ***=p<0.001 vs. untreated controls.
In vivo, the compound of Example 20 increases SMN protein in the brain and muscle in the severe SMNΔ7 model and the milder C/C-allele model, carrying human SMN2 transgenes. Adult C/C-allele mice were treated for 10 days with vehicle or the compound of Example 20 (1, 3 or 10 mg/kg PO, daily), and 3 days old (P3) SMNΔ7 mice were treated for 7 days with vehicle or the compound of Example 20 (0.1, 0.3, 1 or 3 mg/kg IP, daily). […] In SMNΔ7 mice, the SMN protein increase was only partial in both brain and muscle, reaching approximately 43% (brain) and 55% (muscle) of protein levels in heterozygous mice.

SMNΔ7 mice [1] = assay: Neuromuscular connectivity and muscle atrophy in SMNΔ7 mice (immunohistochemistry); format: in vivo, mouse; conditions: 0.1, 0.3, 1 mg/kg IP once per day, P3 to P14
Procedure: SMNΔ7 mice were treated with the compound of Example 20 from P3 to P14, and neuromuscular connectivity and muscle atrophy were assessed by immunohistochemistry. (A) vGlut1-positive proprioceptive inputs in L3-5 spinal cord. (B) Ventral motor axons in L3-5 spinal cord. (C) NMJ innervation onto longissimus muscle. (D) EDL muscle cross-sectional area. Data represent means SEM of 4-5 mice per group. *=p<0.05; **=p<0.01; ***=p<0.001 vs. vehicle-treated SMNΔ7 mice.
Lastly, the compound of Example 20 improves neuromuscular connectivity in a severe SMA mouse model in vivo. SMNΔ7 mice were treated from P3 to P14 by IP application of vehicle or 0.1, 0.3, 1 mg/kg Example 20 once per day. At P14, 1 hour after the last dose spinal cord and muscle tissues were processed for histological assessment.

SMNΔ7 mice [2] = assay: Survival and body weight of SMNΔ7 mice; format: in vivo, mouse
Procedure: FIG. 3. in vivo Effects of treatment SMNΔ7 mice with 7-(4,7-diazaspiro[2.5]octan-7-yl)-2-(2,8-dimethylimidazo[1,2-b]pyridazin-6-yl)pyrido[1,2-a]pyrimidin-4-one (Example 20). SMNΔ7 mice were treated with the compound of Example 20 from P3 onwards and animal survival (A) and body weight (B) were assessed daily until P100. Data represent means SEM of 10-12 mice per group. HET=heterozygous littermates.
Functional benefits were assessed in the severe and mild SMA mouse models. SMNΔ7 mice were treated from P3 to P23 once daily by IP injection of vehicle or the compound of Example 20, and from P24 onwards once daily by oral gavage. During the treatment period, body weight and animal survival were monitored. Over the 100-day observation period, only two heterozygous littermates died. In contrast, all vehicle-treated mice died before P21 with a median survival time (MST) of 10.5 days.

Question: `Cc1cn2nc(-c3cc(=O)n4cc(N5CCNC6(CC6)C5)ccc4n3)cc(C)c2n1` [Example 20, 7-(4,7-diazaspiro[2.5]octan-7-yl)-2-(2,8-dimethylimidazo[1,2-b]pyridazin-6-yl)pyrido[1,2-a]pyrimidin-4-one] was tested. Which “concentration at which effects on splicing were evident” value (SMN2 splicing) did it give?
Answer: above 100 nM

Question: What about the “effect on SMN2 splicing” value (SMN2 splicing) of the same compound?
Answer: dose-dependently altered towards inclusion of exon 7

Question: What about the “SMN levels in muscle compared with heterozygous mice” value (SMN protein; C/C-allele mice, 10 mg/kg dose) of the same compound?
Answer: no different from those in heterozygous mice

Question: What about the “maximum increase of SMN protein levels in brain and muscle tissue” value (SMN protein; adult C/C-allele mice, 10 mg/kg PO daily, 10 days) of the same compound?
Answer: 2-3 fold

Question: And the “fiber size in extensor digitorum longus (EDL) muscles relative to vehicle-treated SMNΔ7 mice” value (SMNΔ7 mice [1])?
Answer: dose-dependently and significantly increased

Question: What about the “number of motor axons relative to vehicle-treated SMNΔ7 mice” value (SMNΔ7 mice [1]) of the same compound?
Answer: dose-dependently and significantly increased

Question: And the “number of vGlut1 inputs relative to vehicle-treated SMNΔ7 mice” value (SMNΔ7 mice [1])?
Answer: dose-dependently and significantly increased

Question: And the “percentage of fully innervated NMJs relative to vehicle-treated SMNΔ7 mice” value (SMNΔ7 mice [1]; longissimus muscle)?
Answer: dose-dependently and significantly increased

Question: What about the “recovery in body weight gain as compared to heterozygous littermates” value (“recovery … compared to heterozygous littermates” below) (SMNΔ7 mice [2]; high dose) of the same compound?
Answer: 85%

Question: What about the “animals surviving up to P100” value (SMNΔ7 mice [2]; high dose: 3 mg/kg IP through P23 and 10 mg/kg PO thereafter) of the same compound?
Answer: 73%

Question: And the “correction of impaired body weight increase” value (SMNΔ7 mice [2]; low dose)?
Answer: only mildly corrected

Question: And the “recovery … compared to heterozygous littermates” value (SMNΔ7 mice [2]; mid dose)?
Answer: 71%

Question: And the “animals surviving up to P100” value (SMNΔ7 mice [2]; mid dose: 0.3 mg/kg IP through P23 and 1 mg/kg PO thereafter)?
Answer: 80%

Question: And the “recovery … compared to heterozygous littermates” value (SMNΔ7 mice [2]; mid/high dose)?
Answer: 82%

Question: What about the “animals surviving up to P100” value (SMNΔ7 mice [2]; mid/high dose: 1 mg/kg IP through P23 and 3 mg/kg PO thereafter) of the same compound?
Answer: 82%
